Where “and” joins values, the source holds several entries; their conditions need not be identical. Equal values may be shown once. Read-outs that look alike come from different tables or passages of the source.
Columns and labels:
MT-4 cells = test: Cytotoxicity in MT-4 cells, tetrazolium reduction assay; assay type: cell-based, human
[1] = tested on: virus-induced cell fusion (gp120-CD4 dependent); test: Anti-syncytial cocultivation assay: H9 cells chronically infected with HIV-1 RF mixed with uninfected C8166 cells; assay type: cell-based, HIV-1 RF; human H9 and C8166 cells; conditions: 100 μg/ml
Text: Syncytial cell formation depends on the interaction of gp120, expressed in the membranes of infected cells, with the CD4 antigen on neighboring cells (Camerini and Seed, 1990). We utilized a cell cocultivation model to examine the effect of the stilbene disulfonic acids on the gp120-CD4 dependent fusion process. This system consists of mixing H9 cells chronically infected with HIV-1 RF (gp120^+ cells) with uninfected C8166 cells (CD4^+ cells) as the fusion indicator. In this assay, cell fusion occurred within 2 to 3 hours of mixing at 37° C. and substantial syncytia were observed after a further 3 to 4 hours (FIG. 1, Panel A). […] These findings with the sulfated polysaccharides were consistent with a previous report (Montefiori et al., 1990).
The effect of the stilbene disulfonic acids and various sulfated polysaccharides on virus-induced cell fusion. In this assay, 10^5 H9 cells, chronically infected with the HIV-1 strain RF, were cocultured with 10^5 uninfected C8166 cells in the absence and presence of the test compounds. FIG. 1A: Positive control, no compound addition; FIG. 1B: 100 μg/ml DIDS; FIG. 1C: 100 μg/ml SITS; FIG. 1D: positive control; FIG. 1E: 10 μg/ml 500,000 MW dextran sulfate; FIG. 1F: 250 μg/ml heparin.
CD4^+ uninfected C8166 cells were seeded into 24-well trays ([…]) that contained growth medium and various concentrations of test compounds. H9 cells, chronically infected with the RF strain of HIV-1, were washed and then added as a source of gp120^+ cells at 10^5 cells/well except for the noncytopathic control: those wells received uninfected H9 cells. The trays were then incubated at 37° C. and the cocultures were observed between 1 and 6 hours p.i. Syncytia were recorded on photographic film.
Protocol: H9 cells chronically infected with RF strain of HIV-1 and uninfected C8166 cells were mixed in the presence of either DIDS, SITS, H2 DIDS, dextran sulfate, or heparin (100 μg/ml). The cells were observed after 2, 31/2 and 51/2 hours and the amount of cell fusion quantified.
Protocol: H9 cells chronically inected with HIV-1 and uninfected C8166 cells were mixed in the presence of either DIDS, SITS, H2 DIDS, dextran sulfate, heparin (at 100 μg/ml), OKT4 or OKT4A (at a 1/50 dilution). The cells were observed after 4 hours and the amount of cell fusion quantitied. OKT4 and OKT4A are monoclonal antibodies that bined the CD4 cell surface antigen.

HIV-1 = test: Back titration of cell-free supernatants (infectivity) on fresh uninfected JM cells; assay type: cell-based, HIV-1 (human T cell line JM)
Experimental: Protocol: JM cells were infected with HIV-1 to give a multiplicity of infection of 0.001. Virus adsorption was for 2 hours at room temperature. The cells were washed and distributed into wells containing different concentrations of test compounds and incubated. After 2 days the cells were observed and syncytia were counted. The cell-free supernatant fluids were harvested at 4 and 6 days post infection and assayed for levels of p24 viral core antigen and after 6 days the supernatants were also titrated to determine levels of infectivity.
*Syncytia-forming unit; cellfree supernatants from virus infected cells
having received the indicated concentration of compounds were incubated
with fresh uninfected JM cells and syncytia were scored to determine the
number of infectious units/ml.
supernatants from virusinfected control cells not having received drug

HIV-1 infected JM cells = test: Treatment of HIV-1 infected JM cells with DIDS, SITS and ddC; assay type: cell-based, HIV-1 (human T cell line JM); conditions: for Mean syncytia/well 3 days p.i. / Mean syncytia/well 4 days p.i. / p24 antigen 3 days p.i. / p24 antigen 4 days p.i.: 100 μg/ml
Experimental: Protocol: JM cells were infected with HIV to give approximately 100 syncytia after 3 days. Virus adsorption was at room temperature for 2 hours. The cells were then washed thoroughly and distributed in wells of a tissue culture plate at a concentration of 1×10^5 cells/well. At 24 hours post infection either DIDS (100 μg/ml), SITS (100 μg/ml), or ddC (5 μM) were added to wells having infected cells. As virus controls, some wells had no drug added. At 42 hours post infection other wells received either ddC (5 μM), SITS (100 μg/ml), or DIDS (100, 50, 25, 12.5, 6.25 μg/ml). Syncytia were scored at 3 and 4 days post-infection and the supernatant fluids were harvested after 3 and 4 days for p24 core antigen determination.

[2] = tested on: virus-induced cell fusion (gp120-CD4 dependent); test: Anti-syncytial cocultivation assay: H9 cells chronically infected with HIV-1 RF mixed with uninfected C8166 cells; assay type: cell-based, HIV-1 RF; human H9 and C8166 cells; conditions: 200 μg/ml; Panel C

O=S(=O)(O)c1cc(N=C=S)ccc1CCc1ccc(N=C=S)cc1S(=O)(=O)O [H2 DIDS, 4,4'-diisothiocyanatodihydrostilbene-2,2'-disulfonic acid]
cytotoxicity at antiviral concentrations (MT-4 cells): noncytotoxic
Syncytia after 2 hrs ([1]; virus control ++): 0
Syncytia after 3 1/2 hrs ([1]; virus control +++): 0
Syncytia after 5 1/2 hrs ([1]; virus control +++): 0

CC(=O)Nc1ccc(C=Cc2ccc(N=C=S)cc2S(=O)(=O)O)c(S(=O)(=O)O)c1 [SITS, 4-acetamido-4'-isothiocyanatostilbene-2,2'-disulfonic acid]
Back titration of cell-free supernatants at 6 days p.i. (HIV-1; 25 μg/ml): 1.9 × 10^3 SFUs/ml and 2.5 × 10^3 SFUs/ml
Back titration of cell-free supernatants at 6 days p.i. (HIV-1; 100 μg/ml): < 10^1 SFUs/ml
viral infectivity in the cell-free supernatants (HIV-1; data not shown): absence of viral infectivity
Mean syncytia/well 3 days p.i. (HIV-1 infected JM cells; added 24 hr): As VC
Mean syncytia/well 4 days p.i. (HIV-1 infected JM cells; added 24 hr): As VC
p24 antigen 3 days p.i. (HIV-1 infected JM cells; added 24 hr): 18000 pg/mL
p24 antigen 4 days p.i. (HIV-1 infected JM cells; added 24 hr): 62500 pg/mL
Mean syncytia/well 3 days p.i. (HIV-1 infected JM cells; added 42 hr): As VC
Mean syncytia/well 4 days p.i. (HIV-1 infected JM cells; added 42 hr): As VC
p24 antigen 3 days p.i. (HIV-1 infected JM cells; added 42 hr): 7000 pg/mL
p24 antigen 4 days p.i. (HIV-1 infected JM cells; added 42 hr): 95000 pg/mL
activity at 100 µg/mL (HIV-1 infected JM cells; Human immunodeficiency virus 1, 72 h, read-out: p24 antigen 3 days p.i., % control, 100 μg/ml, added 24 hr): 38%
activity at 100 µg/mL (HIV-1 infected JM cells; Human immunodeficiency virus 1, 72 h, read-out: p24 antigen 3 days p.i., % control, 100 μg/ml, added 42 hr): 15%
activity at 100 µg/mL (HIV-1 infected JM cells; Human immunodeficiency virus 1, 96 h, read-out: p24 antigen 4 days p.i., % control, 100 μg/ml, added 24 hr): 70%
activity at 100 µg/mL (HIV-1 infected JM cells; Human immunodeficiency virus 1, 96 h, read-out: p24 antigen 4 days p.i., % control, 100 μg/ml, added 42 hr): > 100%
cell fusion / syncytia [2]: had no effect

— patent US5494932A, “Sulfonic stilbene derivatives in the treatment of viral disease” (Merrell Dow Pharmaceuticals Inc., priority 1991, dated 1996)
